According to patent USRE50528E1, “Compounds and compositions for modulating EGFR mutant kinase activities” (Yuhan Corporation, priority 2014, dated 2025):
Where two headings read alike, the source gives them in different places.

How the values were obtained:
SYK = target: T1, SYK (Homo sapiens, UniProt P43405); experiment: Kinase inhibition assay, SYK; type: biochemical; details: biochemical potency;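 also: purified full-length human SYK pre-incubated 30 min with compound, then ULight-TK peptide phosphorylation for 1 h, detected with Europium-labeled antibody in Lance buffer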
T1 construct: Purified human, full-length SYK, KDR; purchased Carna Biosciences

EGFR mutant T790M = target: T2, EGFR mutant T790M (Homo sapiens, UniProt P00533, T790M); experiment: Kinase inhibition assay, EGFR mutant T790M; details: biochemical potency;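 also: truncated human EGFR mutant enzyme preincubated two hours with compound, then ATP plus ULight-PolyGT peptide for one hour, Europium-labeled antibody LANCE detection, IC50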
T2 construct: truncated human JAK3, EGFR mutants such as del E746-A750; purchased Carna Biosciences

[1] = target: T3, EGFR mutant Del19 (E746-A750) (Homo sapiens, UniProt P00533, DEL746-750); experiment: Kinase inhibition assay, EGFR del E746-A750; type: biochemical; details: read-out: EGFR mutants Del19 (E746-A750);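 also: truncated human EGFR mutant kinase, two-hour preincubation with compound, then one-hour reaction with ATP and ULight-PolyGT peptide, LANCE Europium-antibody phosphorylation readout, IC50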
T3 construct: truncated human JAK3, EGFR mutants such as del E746-A750; purchased Carna Biosciences

EGFR mutant L858R/T790M = target: T4, EGFR mutant L858R/T790M (Homo sapiens, UniProt P00533, L858R/T790M); experiment: Kinase inhibition assay, EGFR L858R/T790M; type: biochemical; details: read-out: EGFR mutants L858R/T790M;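 also: truncated human enzyme preincubated two hours with compound, then one hour with one millimolar ATP and ULight-PolyGT peptide, Europium-labeled antibody detection, IC50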
T4 construct: truncated human JAK3, EGFR mutants such as del E746-A750; purchased Carna Biosciences

EGFR mutant L858R = target: T5, EGFR mutant L858R (Homo sapiens, UniProt P00533, L858R); experiment: Kinase inhibition assay, EGFR L858R; type: biochemical; details: read-out: EGFR mutants L858R;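 also: truncated human EGFR L858R kinase with compound preincubation, ULight-PolyGT peptide phosphorylation read by Europium-antibody Lance detection, IC50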
T5 construct: truncated human JAK3, EGFR mutants such as del E746-A750; purchased Carna Biosciences

| Molecule | IC50 (SYK) [nM] | IC50 (EGFR mutant T790M) [nM] | IC50 [1] [nM] | IC50 (EGFR mutant L858R/T790M) [nM] | IC50 (EGFR mutant L858R) [nM] | IC50 (EGFR mutant L858R/T790M; biochemical potency, 1 mM ATP) [nM] | IC50 (EGFR mutant L858R; biochemical potency, 1 mM ATP) [nM] |
| --- | --- | --- | --- | --- | --- | --- | --- |
| C=CC(=O)Nc1ccc(OC)c(Nc2nccc(-n3ccc(C)n3)n2)c1 [Compound 9, N-(4-methoxy-3-(4-(3-methyl-1H-pyrazol-1-yl)pyrimidin-2-ylamino)phenyl)acrylamide] | > 1000 | 20 to 200 | – | – | – | – | – |
| C=CC(=O)Nc1ccc(OC)c(Nc2ncc(C)c(-n3cc(CN4CC(O)C4)cn3)n2)c1 [Compound 11, N-(3-(4-(4-((3-hydroxyazetidin-1-yl)methyl)-1H-pyrazol-1-yl)-5-methylpyrimidin-2-ylamino)-4-methoxyphenyl)acrylamide] | 20 to 200 | < 20 | – | – | – | – | – |
| C=CC(=O)Nc1cc(Nc2nccc(-n3cc(CN4CCC4)c(C)n3)n2)c(OC)cc1N(C)CCN(C)C [Compound 16, N-(5-(4-(4-(azetidin-1-ylmethyl)-3-methyl-1H-pyrazol-1-yl)pyrimidin-2-ylamino)-2-((2-(dimethylamino)ethyl)(methyl)amino)-4-methoxyphenyl)acrylamide] | > 1000 | 20 to 200 | – | – | – | – | – |
| C=CC(=O)Nc1cc(Nc2nccc(-n3cc(CN4CCC4)c(C)n3)n2)c(OC)cc1N1CCCCC1 [Compound 18, N-(5-(4-(4-(azetidin-1-ylmethyl)-3-methyl-1H-pyrazol-1-yl)pyrimidin-2-ylamino)-4-methoxy-2-(piperidin-1-yl)phenyl)acrylamide] | > 1000 | < 20 | – | – | – | – | – |
| C=CC(=O)Nc1cc(Nc2ncc(C)c(-n3cc(CN4C[C@@H](O)[C@@H](O)C4)cn3)n2)c(OC)cc1N1CCOCC1 [Compound 20, N-(5-(4-(4-(((3R,4S)-3,4-dihydroxypyrrolidin-1-yl)methyl)-1H-pyrazol-1-yl)-5-methylpyrimidin-2-ylamino)-4-methoxy-2-morpholinophenyl)acrylamide] | 201 to 1000 | < 20 | – | – | – | – | – |
| C=CC(=O)Nc1cc(Nc2ncc(C)c(-n3cc(CN4CC(O)C4)c(C)n3)n2)c(OC)cc1N1CCOCC1 [Compound 24, N-(5-(4-(4-((3-hydroxyazetidin-1-yl)methyl)-3-methyl-1H-pyrazol-1-yl)-5-methylpyrimidin-2-ylamino)-4-methoxy-2-morpholinophenyl)acrylamide] | 201 to 1000 | < 20 | – | – | – | – | – |
| C=CC(=O)Nc1cc(Nc2ncc(C)c(-n3cc(CN4CC[C@@H](O)C4)c(C)n3)n2)c(OC)cc1N1CCOCC1 [Compound 27, (R)—N-(5-(4-(4-((3-hydroxypyrrolidin-1-yl)methyl)-3-methyl-1H-pyrazol-1-yl)-5-methylpyrimidin-2-ylamino)-4-methoxy-2-morpholinophenyl)acrylamide] | > 1000 | < 20 | – | – | – | – | – |
| C=CC(=O)Nc1cc(Nc2nccc(-n3cc(CN4CC(O)C4)c(C)n3)n2)c(OC)cc1-c1cnn(C)c1 [Compound 58, N-(5-(4-(4-((3-hydroxyazetidin-1-yl)methyl)-3-methyl-1H-pyrazol-1-yl)pyrimidin-2-ylamino)-4-methoxy-2-(1-methyl-1H-pyrazol-4-yl)phenyl)acrylamide] | 201 to 1000 | 20 to 200 | – | – | – | – | – |
| C=CC(=O)Nc1cc(Nc2ncc(F)c(-n3cc(CN4C[C@H](O)[C@H](OC)C4)c(C)n3)n2)c(OC)cc1N1CCOCC1 [Compound 61, N-(5-(5-fluoro-4-(4-(((3S,4R)-3-hydroxy-4-methoxypyrrolidin-1-yl)methyl)-3-methyl-1H-pyrazol-1-yl)pyrimidin-2-ylamino)-4-methoxy-2-morpholinophenyl)acrylamide] | > 1000 | < 20 | 20 to 200 | 20 to 200 | 20 to 200 | – | – |
| C=CC(=O)Nc1cc(Nc2ncc(C)c(-n3cc(CN4CCC4)cn3)n2)c(OC(C)C)cc1N1CCOCC1 [Compound 63, N-(5-(4-(4-(azetidin-1-ylmethyl)-1H-pyrazol-1-yl)-5-methylpyrimidin-2-ylamino)-4-isopropoxy-2-morpholinophenyl)acrylamide] | > 1000 | 20 to 200 | 20 to 200 | 20 to 200 | 201 to 1000 | – | – |
| C=CC(=O)Nc1cc(Nc2nccc(-n3cc(CO)c(C)n3)n2)c(OC)cc1N1CCOCC1 [Compound 66, N-(5-(4-(4-(hydroxymethyl)-3-methyl-1H-pyrazol-1-yl)pyrimidin-2-ylamino)-4-methoxy-2-morpholinophenyl)acrylamide] | > 1000 | 20 to 200 | < 20 | < 20 | 20 to 200 | – | – |
| C=CC(=O)Nc1cc(Nc2nccc(-n3cc(CN4CC(F)C4)c(C)n3)n2)c(OC)cc1N1CCOCC1 [Compound 72, N-(5-(4-(4-((3-fluoroazetidin-1-yl)methyl)-3-methyl-1H-pyrazol-1-yl)pyrimidin-2-ylamino)-4-methoxy-2-morpholinophenyl)acrylamide] | – | 20 to 200 | – | – | – | – | – |
| C=CC(=O)Nc1cc(Nc2nccc(-n3cc(CN(C)C)c(-c4ccccc4)n3)n2)c(OC)cc1N1CCCC1 [Compound 98, N-(5-(4-(4-((dimethylamino)methyl)-3-phenyl-1H-pyrazol-1-yl)pyrimidin-2-ylamino)-4-methoxy-2-(pyrrolidin-1-yl)phenyl)acrylamide] | – | 20 to 200 | < 20 | 20 to 200 | 20 to 200 | – | – |
| C=CC(=O)Nc1cc(Nc2nccc(-n3cc(CN4CCC4)c(-c4ccccc4)n3)n2)c(OC)cc1N1CCCC1 [Compound 99, N-(5-(4-(4-(azetidin-1-ylmethyl)-3-phenyl-1H-pyrazol-1-yl)pyrimidin-2-ylamino)-4-methoxy-2-(pyrrolidin-1-yl)phenyl)acrylamide] | – | 20 to 200 | < 20 | 20 to 200 | 20 to 200 | – | – |
| N-(2-((2-(dimethylamino)ethyl)(methyl)amino)-5-(4-(3-((dimethylamino)methyl)-4-(trifluoromethyl)-1H-pyrrol-1-yl)-5-fluoropyrimidin-2-ylamino)-4-methoxyphenyl)acrylamide [Compound 144] | – | < 20 | – | – | – | – | – |
| N-(5-(4-(4-(azetidin-1-ylmethyl)-3-methyl-1H-pyrazol-1-yl)pyrimidin-2-ylamino)-4-methoxy-2-(1H-pyrazol-1-yl)phenyl)acrylamide [Compound 53] | > 1000 | 20 to 200 | – | – | – | 20 to 200 | 20 to 200 |

The next lines start with results.

| IC50 (SYK) [nM] | IC50 (EGFR mutant T790M) [nM] | IC50 [1] [nM] | IC50 (EGFR mutant L858R/T790M) [nM] | IC50 (EGFR mutant L858R) [nM] | Molecule | IC50 (EGFR mutant L858R/T790M; biochemical potency, 1 mM ATP) [nM] | IC50 (EGFR mutant L858R; biochemical potency, 1 mM ATP) [nM] |
| --- | --- | --- | --- | --- | --- | --- | --- |
| > 1000 | < 20 | < 20 | < 20 | < 20 | C=CC(=O)Nc1cc(Nc2nccc(-n3cc(CN4CCC4)c(C(C)(C)C)n3)n2)c(OC)cc1N(C)CCOC [Compound 101, N-(5-(4-(4-(azetidin-1-ylmethyl)-3-tert-butyl-1H-pyrazol-1-yl)pyrimidin-2-ylamino)-4-methoxy-2-((2-methoxyethyl)(methyl)amino)phenyl)acrylamide] | – | – |
| – | < 20 | < 20 | < 20 | < 20 | C=CC(=O)Nc1cc(Nc2nccc(-n3cc(CN4CCC4)c(C(C)(C)C)n3)n2)c(OC)cc1N(C)C1COC1 [Compound 103, N-(5-(4-(4-(azetidin-1-ylmethyl)-3-tert-butyl-1H-pyrazol-1-yl)pyrimidin-2-ylamino)-4-methoxy-2-(methyl(oxetan-3-yl)amino)phenyl)acrylamide] | – | – |
| > 1000 | < 20 | – | – | – | C=CC(=O)Nc1cc(Nc2nccc(-n3cc(CN(C)C)c(C(C)(C)C)n3)n2)c(OC)cc1N1CCCC1 [Compound 104, N-(5-(4-(3-tert-butyl-4-((dimethylamino)methyl)-1H-pyrazol-1-yl)pyrimidin-2-ylamino)-4-methoxy-2-(pyrrolidin-1-yl)phenyl)acrylamide] | – | – |
| > 1000 | 20 to 200 | – | – | – | C=CC(=O)Nc1cc(Nc2nccc(-n3cc(CN4CCC4)c(C(C)(C)C)n3)n2)c(OC)cc1N1CCCC1 [Compound 105, N-(5-(4-(4-(azetidin-1-ylmethyl)-3-tert-butyl-1H-pyrazol-1-yl)pyrimidin-2-ylamino)-4-methoxy-2-(pyrrolidin-1-yl)phenyl)acrylamide] | – | – |
| > 1000 | 20 to 200 | – | – | – | C=CC(=O)Nc1cc(Nc2nccc(-n3cc(CN4CCC4)c(C4CC4)n3)n2)c(OC)cc1N1CCCC1 [Compound 111, N-(5-(4-(4-(azetidin-1-ylmethyl)-3-cyclopropyl-1H-pyrazol-1-yl)pyrimidin-2-ylamino)-4-methoxy-2-(pyrrolidin-1-yl)phenyl)acrylamide] | – | – |
| > 1000 | < 20 | – | – | – | C=CC(=O)Nc1cc(Nc2nccc(-n3cc(CN(C)C)c(C(C)C)n3)n2)c(OC)cc1N1CCCC1 [Compound 116, N-(5-(4-(4-((dimethylamino)methyl)-3-isopropyl-1H-pyrazol-1-yl)pyrimidin-2-ylamino)-4-methoxy-2-(pyrrolidin-1-yl)phenyl)acrylamide] | – | – |
| > 1000 | < 20 | – | – | – | C=CC(=O)Nc1cc(Nc2nccc(-n3cc(CN4CCC4)c(C(C)C)n3)n2)c(OC)cc1N1CCCC1 [Compound 117, N-(5-(4-(4-(azetidin-1-ylmethyl)-3-isopropyl-1H-pyrazol-1-yl)pyrimidin-2-ylamino)-4-methoxy-2-(pyrrolidin-1-yl)phenyl)acrylamide] | – | – |
| 201 to 1000 | < 20 | – | – | – | C=CC(=O)Nc1cc(Nc2ncc(F)c(-n3cc(C)c(CN(C)C)c3)n2)c(OC)cc1N(C)C [Compound 143, N-(2-(dimethylamino)-5-(4-(3-((dimethylamino)methyl)-4-methyl-1H-pyrrol-1-yl)-5-fluoropyrimidin-2-ylamino)-4-methoxyphenyl)acrylamide] | – | – |
